Experimental data as given in patent US20170027902A1, “Use of a Composition Comprising a Flavonol, A Flavonoid, and a Fatty Acid in the Treatment of Oxidative Injuries Due to Mitochondrial Dysfunction” (priority 2014, published 2017).

Tested on: primary mouse cortical cultures
Assay: Confocal imaging of calcium transients and mitochondrial membrane potential
Format: cell-based
Procedure: Embryonic day 16 timed pregnant CD1 out-bred mice were obtained from Charles River Laboratories (Charles River; QC, Canada). Primary cortical neuron cultures were prepared from cerebral cortices of wild type (WT) CD1 mouse embryos as described previously, with the following modifications. Pregnant CD1 females were heavily anaesthetized with isoflurane vapor (Benson Medical Industries, Inc., Markham, ON) before being euthanized by decapitation. The embryonic day 16 (E16) fetuses were immediately removed from the sacrificed pregnant females by cesarean section and placed in ice-cold Hank's Balanced Salt Solution (HBSS) (GIBCO; Invitrogen, Amarillo, Calif.). The meninges were removed from the brains and cortices were isolated under a dissecting microscope. The cortices from each embryo were placed in individual wells of a 24-well plate (Corning; Lowell, Mass.), containing 1 ml of ice-cold PBS (GIBCO; […] Under sterile conditions, the tissue was briefly minced, transferred to 15 ml sterile conical tubes (Corning; Lowell, Mass.) and centrifuged at 350×g for 3 min at room temperature. The dissecting solution was discarded and the cortical neurons were then dissociated trituration with fire-polished glass pipettes followed by incubating in 1 ml of 0.1% trypsin solution (0.1% w/v trypsin (Invitrogen, Amarillo, Calif.) in PBS with 1 mM Mg^2+ and 13 mM glucose) at 37° C. for 15 min. The trypsinization was inhibited by the addition of 0.5 ml of trypsin inhibitor solution that also contained DNase I (0.06% w/v trypsin inhibitor (Invitrogen; Amarillo, Calif.) and 0.01% DNase I (Invitrogen; […] The tubes were mixed briefly and the cells were centrifuged at 350×g for 3 min at room temperature. The trypsin and inhibitor solutions were discarded and each cell pellet was suspended in 1 ml of cortical neuron plating medium (Neurobasal medium (Invitrogen, Amarillo, Calif.) with 10% fetal bovine serum (GIBCO; Invitrogen; Amarillo, Calif.), 2% B27 supplement, 1 mM L-glutamine, and 1% Gentamycin (Invitrogen; […] Cortical neurons were plated in 96-well plates (Corning; Lowell, Mass.) that were pre-coated with poly-D-lysine (PDL; Sigma-Aldrich; Oakville, ON) according to the procedure described by the manufacturer. Briefly, plates were coated immediately before use with 100 μg/ml PDL for 5-10 min (50 μl/well), washed three times with tissue-culture grade water and left to dry for 2 h before cells were introduced. Cortical neurons were plated at a concentration of 1×10^6 cells/ml (100 µl/well) and medium was completely changed the day after plating to serum-free cortical neuron medium (Neurobasal medium with 2% B27 supplement, 5 mM HEPES, 0.5 mM L-glutamine, and 20 μg/ml Gentamycin), which was replaced every 3 days in culture. Cultures were maintained in a humidified, 37° C. incubator with 5% CO2. Experiments were performed on the eighth day in vitro (DIV10). For measurements of mitochondrial membrane potential (ΔΨm), cells were loaded with 25 nM tetrannethylrhodamine methyl ester (TMRM) for 30 min at room temperature and the dye was present during the experiment. TMRM is used in the redistribution mode to assess ΔΨm with a reduction in TMRM fluorescence indicating mitochondrial depolarization. Neurons were loaded for 30 min at room temperature with X-rhod-1 AM (0.5 μM) and Fluo-3 AM (0.5 μM) (Molecular Probes, Invitrogen) prior to imaging in HEPES-buffered salt solution (HBSS) composed of (mM): 156 NaCl, 3 KCl, 2 MgSO4, 1.25 KH2PO4, 2 CaCl2, 10 glucose and 10 HEPES, pH adjusted to 7.35 with NaOH. Confocal images were obtained using a 510 CLSM (Zeiss, Thornwood, N.Y.) equipped with a META detection system and a […] oil-immersion objective. The 488 nm Argon laser line was used to excite fluo-3 fluorescence, which was measured using a bandpass filter from 505 to 550 nm. Illumination intensity was kept to a minimum (at 0.1-0.2% of laser output) to avoid phototoxicity and the pinhole was set to give an optical slice of 2 μm. […]

Compound | TMRM fluorescence (added after Q and thapsigargin) | [Ca2+]c (added after Q and thapsigargin) | [Ca2+]c oscillations stimulated by Q (5 μM, depletion of ER Ca2+ stores)
N#CC(C#N)=NNc1ccc(OC(F)(F)F)cc1 [FCCP, carbonyl cyanide-4-(trifluoromethoxy)phenylhydrazone] | complete loss | sharp increase | –
C/C=C(/C)C(=O)O[C@H]1C(C)=C2[C@H]([C@@H]1OC(=O)CCCCCCC)[C@@](C)(OC(C)=O)C[C@H](OC(=O)CCC)[C@@]1(O)[C@H]2OC(=O)[C@@]1(C)O [thapsigargin] | – | – | blocked
